The subject of the test is FSK-4 cells. The test can be described thus: Assay (IV): Glucose utilisation in FSK-4 cells. The class given is cell-based. To be noted: for EC50: read-out: FSK4 EC50; for Emax: read-out: FSK4 Emax (% of FCCP). As for the experimental part: Assay (IV): Glucose Utilisation in FSK-4 Cells
The assay measures indirectly the activity of the respiratory chain in FSK-4 cells by using D-(6-^3H(N))-glucose. The ^3H-proton will first be released in the TCA cyclus and transported to the respiratory chain where it will be incorporated into water. The water is thereafter separated from the D-(6-^3H(N))-glucose by evaporation. Finally, the radioactivity in the water is determined using a Topcounter.
FSK-4 cells obtained from ATCC (Maryland, USA), are cultured in growth medium (McCoy's medium with the following addition 100 units/ml penicillin and streptomycin and 10% FCS (fetal calf serum)) at 37° C. and 5% CO2. All media are obtained by Gibco (Life Technologies, Maryland, USA) where not otherwise mentioned.
At day zero the cells are harvested using trypsin-EDTA and washed in assay medium (MEM medium with the following addition 1× non-essential amino acids (M7145, 2 mM glutamin, 100 units/ml pencillin and streptomycin, 0.0075% sodium bicarbonate, 1 mM sodium pyrovate and 2% horse serum) using centrifugation. The cells are plated into single StripPlates wells (Corning B.V.Life Sciences, The Netherlands) that are placed into 24-well plates (Corning B.V.Life Sciences, The Netherlands) with a concentration of 1,5×10^4 cells/100 μl assay medium/well. The cells are then incubated at 37° C. and 5% CO2 overnight.
The next day the compounds to be tested are diluted to different concentrations in DMSO (Sigma, Missouri, USA) to 100 times final concentration. They are then diluted to a final concentration in assay medium containing 10 μCi/ml D-(6-^3H(N))-glucose (PerkinElmer Life Sciences Inc., Boston, USA). The medium is removed from the cells and 200 μl of the compound dilutions are added in duplicates. The cells are then incubated for another 24 hours at 37° C. and 5% CO2. Finally the cells are lysed by adding 50 μl 10% TCA (tri-chloroacetatic acid). 300 μl of sterile water is then added to the 24-wells that surrounds the StripPlate wells. The plate is sealed with Top-seal-tape (Packard, PerkinElmer Life Sciences Inc., Boston, USA) and the plate is incubated in a heating cupboard at 50° C. to equilibrium the radioactive water formed in the respiratory chain into the water in the 24-well plate by evaporate. The plates incubate for 8 hours where the heating cupboard is turned off. The top seal is removed when the samples have reached room temperature. One ml scintillation liquid (Packard Microscient, PerkinElmer Life Sciences Inc., Boston, USA) is added to all the samples and the radioactivity is determined using a Topcounter (Packard, PerkinElmer Life Sciences Inc., Boston, USA). Non-specific activity is determined by evaporating 200 μl of the dilution medium containing the D-(6-^3H(N))-glucose into 300 μl sterile water, and total radioactivity is determined by counting 5 μl assay medium with 10 μCi/ml D-(6-^3H(N))-glucose.
All calculations are done using GraphPad Prism 3.0 (GraphPad software, Inc.) From concentration-response curves the half maximal concentration (EC50) and maximal efficacy (Emax) are calculated using equation 1.
Y=Bottom+(Top−Bottom)/(1+10^((LogEc50-X)*slope))
X is the logarithm of the molar concentration of the test compound.
Y is the degree of stimulation caused by the compound measured as percentage of the basal stimulation.
The calculated EC50 value is then used to determine the concentrations used in a study where the Hill slope is calculated.
From the double logarithmic plot of the increase in glucose utilisation and the compound concentration the Hill slope is calculated accordingly to equation 2.
It is presumed, that the maximal increase in the glucose utilisation (as measured in the FSK-4 glucose utilisation assay) is limited by the capacity of the metabolism.

[1] abbreviates: FSK-4 cells, glucose utilisation, 24 hours incubation.
Where [2] appears, read: FSK-4 cells, maximal efficacy relative to FCCP.

Results on 18 molecules are retold here after patent publication US20040138301A1, “Chemical uncouplers for the treatment of obesity” (priority 2002, published 2004).

The structures appear in SMILES notation. Where two headings read alike, the source gives them in different places.

For orientation: EC50 means the concentration needed to bring the measured effect to its halfway point. The term Emax denotes the maximal effect, on the per cent scale that the assay sets. Consider `N#CC(C#N)=Cc1c[nH]c2ccc([N+](=O)[O-])cc12` [Example 35, 2-(5-Nitro-1H-Indol-3-Ylmethylene)-Malononitrile], for which, under setting [1], the EC50 worked out at 5000 nM. Moreover, under setting [2], the Emax amounted to 50%. Consider `Cc1[nH]c2ccc([N+](=O)[O-])cc2c1C=C(C#N)C#N` [Example 36, 2-(2-Methyl-5-Nitro-1H-Indol-3-Ylmethylene)-Malononitrile], for which the Emax is 76%. Also, under “24 h”, the EC50 turned out to be 6350 nM.

On to `CC(C)(C)c1cc(/C=C(\C#N)C(=O)Nc2ccc(Cl)cc2)cc(C(C)(C)C)c1O` [Example 83, N-(4-Chloro-Phenyl)-2-Cyano-3-(3,5-Di-Tert-Butyl-4-Hydroxy-Phenyl)-Acrylamide], for which, under setting [1], the EC50 was 1100 nM. Further, the Emax under setting [2] worked out at 120%.

Consider `CC(C)(C)c1cc(/C=C(\C#N)S(C)(=O)=O)cc(C(C)(C)C)c1O` [Example 84, (E)-3-(3,5-Di-Tert-Butyl-4-Hydroxy-Phenyl)-2-Methanesulfonyl-Acrylonitrile], for which the concentration for a half-maximal effect (EC50) under setting [1] is 1400 nM. On the same count and under the same terms, the figure for `CC(C)(C)c1cc(/C=C(\C#N)S(=O)(=O)c2ccc(Cl)cc2)cc(C(C)(C)C)c1O` [Example 85, (E)-2-(4-Chloro-Benzenesulfonyl)-3-(3,5-Di-Tert-Butyl-4-Hydroxy-Phenyl)-Acrylonitrile] is 800 nM; for `CC(C)(C)c1cc(/C=C(\C#N)S(=O)(=O)c2ccc(F)cc2)cc(C(C)(C)C)c1O` [Example 86, (E)-3-(3,5-Di-Tert-Butyl-4-Hydroxy-Phenyl)-2-(4-Fluoro-Benzenesulfonyl)-Acrylonitrile] it is 1000 nM; for `CC(C)(C)c1cc(/C=C(\C#N)S(=O)(=O)c2ccccc2)cc(C(C)(C)C)c1O` [Example 87, (E)-2-Benzenesulfonyl-3-(3,5-Di-Tert-Butyl-4-Hydroxy-Phenyl)-Acrylonitrile] it is 700 nM. Take `CC(C)S(=O)(=O)/C(C#N)=C/c1cc(C(C)(C)C)c(O)c(C(C)(C)C)c1` [Example 88, (E)-3-(3,5-Di-Tert-Butyl-4-Hydroxy-Phenyl)-2-(Propane-2-Sulfonyl)-Acrylonitrile]: the EC50 under setting [1] amounted to 500 nM. The same measure, in the same setting: the figure for `CC(C)(C)c1cc(/C=C(\C#N)S(=O)(=O)c2cc(Cl)ccc2Cl)cc(C(C)(C)C)c1O` [Example 89, 3-(3,5-Di-Tert-Butyl-4-Hydroxy-Phenyl)-2-(2,5-Dichloro-Benzenesulfonyl)-Acrylonitrile] is 500 nM; for `CC(C)(C)c1cc(/C=C(\C#N)S(=O)(=O)c2ccc(Cl)cc2Cl)cc(C(C)(C)C)c1O` [Example 90, 3-(3,5-Di-Tert-Butyl-4-Hydroxy-Phenyl)-2-(2,4-Dichloro-Benzenesulfonyl)-Acrylonitrile] it is 600 nM. Consider `CCCCCCS(=O)(=O)/C(C#N)=C/c1cc(C(C)(C)C)c(O)c(C(C)(C)C)c1` [Example 91, 3-(3,5-Di-Tert-Butyl-4-Hydroxy-Phenyl)-2-(Hexane-1-Sulfonyl)-Acrylonitrile], for which the EC50 under setting [1] stood at 3800 nM. Take `CC(C)(C)c1cc(/C=C(\C#N)S(=O)(=O)c2ccc(Br)cc2)cc(C(C)(C)C)c1O` [Example 92, 2-(4-Bromo-Benzenesulfonyl)-3-(3,5-Di-Tert-Butyl-4-Hydroxy-Phenyl)-Acrylonitrile]: the EC50 under setting [1] came out at 1000 nM. Regarding `CC(C)(C)c1cc(/C=C(\C#N)S(=O)(=O)c2cccc(Br)c2)cc(C(C)(C)C)c1O` [Example 93, 2-(3-Bromo-Benzenesulfonyl)-3-(3,5-Di-Tert-Butyl-4-Hydroxy-Phenyl)-Acrylonitrile], under setting [1], the EC50 turned out to be 100 nM. Regarding `CC(C)(C)c1cc(Br)cc(C(=O)Nc2ccc(C#N)cc2Cl)c1O` [Example 94, 5-Bromo-3-Tert-Butyl-N-(2-Chloro-4-Cyanophenyl)-2-Hydroxybenzamide], under setting [1], the EC50 is 100 nM. The Emax under setting [2] is 90%. Turning to `Cc1c(Br)cc(C(C)(C)C)c(O)c1C(=O)Nc1ccccc1C(F)(F)F` [Example 96, 3-Bromo-5-Tert-Butyl-6-Hydroxy-2-Methyl-N-(2-Trifluoromethylphenyl)Benzamide], the EC50 under setting [1] turned out to be 20000 nM. The Emax under setting [2] came out at 40%. For the molecule `N#CC(C#N)=Cc1c(Br)[nH]c2ccccc12` [Example 97, 2-(2-Bromo-1H-Indol-3-Ylmethylene)Malononitrile], the EC50 under setting [1] came to 1500 nM. The maximum response (Emax) under setting [2] was 55%. The like results for `Cc1[nH]c2c(Br)cccc2c1C=C(C#N)C#N` [Example 98, 2-(7-Bromo-2-Methyl-1H-Indol-3-Ylmethylene)Malononitrile] were, in that order, 6600 nM and 105%. Taken in the same sequence, the figures for `Cc1[nH]c2ccc(Br)cc2c1C=C(C#N)C#N` [Example 99, 2-(5-Bromo-2-Methyl-1H-Indol-3-Ylmethylene)Malononitrile] were 1700 nM and 40%.
